Like-named read-outs stand apart in the source and are kept apart here.
Legend:
[1] = test system: S. marcescens; test: MIC by serial two-fold agar dilution (Mueller-Hinton agar), S. marcescens; assay type: cell-based; conditions: Serratia marcescens; S. marcescens A20019, Table 6; read-out: MIC
Summary of the method: (§1)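 Serial two-fold agar dilution on Mueller-Hinton agar plates, inoculated with a Steers' replicator. Primary screening covered 31 test organisms; secondary evaluation used 61 Pseudomonas aeruginosa strains. MIC taken as the lowest inhibitory concentration.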

[2] = test system: Gram-positive (6 strains); test: Mean % relative activity (MIC) vs sulbenicillin, Gram-positive (6 strains); assay type: cell-based; conditions: G (+) (6 strains), Table 5
Protocol: (§2) Minimum inhibitory concentrations (MIC) of BB-S520 were determined by serial two-fold agar dilution method using Steers' apparatus on Meuller-Hinton agar plate against 31 test organisms for the primary screening and also against 61 strains of Pseudomonas aeruginosa for the secondary evaluation. The results are shown in Table 1 and Table 2 along with those of BB-S514 and sulbenicillin.
(§3) Minimum inhibitory concentrations (MIC) of cephalosporins in the present study were determined by serial two-fold agar dilution method using Steers' apparatus on Mueller-Hinton agar plate against 31 test organisms for the primary screening and also against 61 strains of Pseudomonas aeruginosa for the secondary evaluation.

[3] = test system: E. coli Juhl; test: Median curative dose in mice, infection with E. coli Juhl; assay type: in vivo; conditions: Escherichia coli, sc; mice, E. coli Juhl infection, Table 5; read-out: PD50
Text: (§4) Median Curative Dose in Mgm./Kg.
(§5) Upon Subcutaneous Injection in Mice

[4] = test system: Gram-negative (19 strains); test: Mean % relative activity (MIC) vs sulbenicillin, Gram-negative (19 strains); assay type: cell-based; conditions: G (-) (19 strains), Table 5
Protocol: as §2, §3

[5] = test system: Klebsiella sp.; test: MIC by serial two-fold agar dilution (Mueller-Hinton agar), Klebsiella sp.; assay type: cell-based; conditions: Klebsiella sp. A20452, Table 6; read-out: MIC
Summary of the method: as §1

[6] = test system: E. cloacae; test: MIC by serial two-fold agar dilution (Mueller-Hinton agar), E. cloacae; assay type: cell-based; conditions: Enterobacter cloacae
Summary of the method: (§6)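 Read-out is the minimum inhibitory concentration from agar plates (Mueller-Hinton) carrying serial two-fold drug dilutions, inoculated via Steers' apparatus. Strains: 31 test organisms in primary screening, 61 P. aeruginosa isolates for secondary evaluation.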

[7] = test system: P. aeruginosa; test: MIC by serial two-fold agar dilution (Mueller-Hinton agar), P. aeruginosa, primary screening; assay type: cell-based; conditions: Pseudomonas aeruginosa, read-out: MIC
Summary of the method: as §6

[8] = test system: P. vulgaris; test: MIC by serial two-fold agar dilution (Mueller-Hinton agar), P. vulgaris; assay type: cell-based; conditions: Proteus vulgaris; P. vulgaris A9539, Table 6; read-out: MIC
Summary of the method: as §1

[9] = test system: S. aureus Smith; test: Median curative dose in mice, infection with S. aureus Smith; assay type: in vivo; conditions: Staphylococcus aureus, sc; mice, S. aureus Smith infection, Table 5; read-out: PD50
Text: as §4, §5

[10] = test system: Pseudomonas aeruginosa; test: MIC by agar dilution against 61 strains of Pseudomonas aeruginosa, secondary evaluation; assay type: cell-based; conditions: for MIC: Pseudomonas aeruginosa
Summary of the method: as §6

[11] = test system: S. enteritidis; test: MIC by serial two-fold agar dilution (Mueller-Hinton agar), S. enteritidis; assay type: cell-based; conditions: Salmonella enterica; S. enteritidis A9531, Table 6; read-out: MIC
Summary of the method: as §1

[12] = test system: P. mirabilis; test: MIC by serial two-fold agar dilution (Mueller-Hinton agar), P. mirabilis; assay type: cell-based; conditions: Proteus mirabilis; P. mirabilis A9900, Table 6; read-out: MIC
Summary of the method: as §1

[13] = test system: K. pneumoniae; test: MIC by serial two-fold agar dilution (Mueller-Hinton agar), K. pneumoniae; assay type: cell-based; conditions: Klebsiella pneumoniae, K. pneumoniae A9977, Table 6
Summary of the method: as §1

## NC(=O)OCC1=C(C(=O)O)N2C(=O)C(NC(=O)[C@H](NC(=O)c3cnc4cccnc4c3O)c3ccc(O)cc3)C2SC1 (single isomer, unassigned) [BB-S530, Sodium 7-[D-(-)-α-(4-hydroxy-1,5-naphthyridine-3-carboxamido)-α-(p-hydroxyphenyl)acetamido]-3-carbamoyloxymethyl-3-cephem-4-carboxylate]
[1]
  MIC: > 100 µg/mL
[2]
  Mean % Relative Activity (SPBC = 100%): 141%
[3]
  ED50: 1.8 mg/kg
[4]
  Mean % Relative Activity (SPBC = 100%): 108%
[5]
  MIC: 1.6 µg/mL
[6]; E. cloacae A9656, Table 6
  MIC: 12.5 µg/mL
[6]; E. cloacae A9657, Table 6
  MIC: 100 µg/mL
[6]; E. cloacae A9659, Table 6
  MIC: 100 µg/mL
[7]; P. aeruginosa A9843, Table 6
  MIC: 1.6 µg/mL
[7]; P. aeruginosa A9930, Table 6
  MIC: 0.8 µg/mL
[7]; P. aeruginosa A15150, Table 6
  MIC: 1.6 µg/mL
[7]; P. aeruginosa A20229, Table 6
  MIC: 1.6 µg/mL
[7]; P. aeruginosa A20717, Table 6
  MIC: 3.1 µg/mL
[8]
  MIC: > 100 µg/mL
[9]
  ED50: 1.3 mg/kg
[10]; 61 strains of Pseudomonas aeruginosa, Table 7
  Rel. Act. (SBPC=100%): 1694%
[10]; P. aerug. (61 strains), Table 5
  Mean % Relative Activity (SPBC = 100%): 1694%
[10]; 61 strains of Pseudomonas aeruginosa, Table 7, read-out: Geometric Mean of MIC
  MIC: 1.4 µg/mL
[10]; BBRI Pa-No. 1, D15, Table 7, read-out: MIC
  MIC: 6.3 µg/mL
[10]; BBRI Pa-No. 2, VA, Table 7, read-out: MIC
  MIC: 1.6 µg/mL
[10]; BBRI Pa-No. 3, 1449VA, Table 7, read-out: MIC
  MIC: 0.8 µg/mL
[10]; BBRI Pa-No. 4, H9 D113, Table 7, read-out: MIC
  MIC: 1.6 µg/mL
[10]; BBRI Pa-No. 5, N4865KC, Table 7, read-out: MIC
  MIC: 1.6 µg/mL
[10]; BBRI Pa-No. 6, No. 5, Table 7, read-out: MIC
  MIC: 6.3 µg/mL
[10]; BBRI Pa-No. 7, Table 7, read-out: MIC
  MIC: 1.6 µg/mL
[10]; BBRI Pa-No. 8, Table 7, read-out: MIC
  MIC: 1.6 µg/mL
[10]; BBRI Pa-No. 9, Yale, Table 7, read-out: MIC
  MIC: 1.6 µg/mL
[10]; BBRI Pa-No. 10, Table 7, read-out: MIC
  MIC: 100 µg/mL
[10]; BBRI Pa-No. 11, Table 7, read-out: MIC
  MIC: 1.6 µg/mL
[10]; BBRI Pa-No. 12, Table 7, read-out: MIC
  MIC: 1.6 µg/mL
[10]; BBRI Pa-No. 14, Table 7, read-out: MIC
  MIC: 0.8 µg/mL
[10]; BBRI Pa-No. 15, Table 7, read-out: MIC
  MIC: 3.1 µg/mL
[10]; BBRI Pa-No. 16, No. 130, Table 7, read-out: MIC
  MIC: < 0.2 µg/mL
[10]; BBRI Pa-No. 17, H6 D114, Table 7, read-out: MIC
  MIC: 12.5 µg/mL
[10]; BBRI Pa-No. 18, H8 D121, Table 7, read-out: MIC
  MIC: 0.4 µg/mL
[10]; BBRI Pa-No. 19, Table 7, read-out: MIC
  MIC: 0.4 µg/mL
[10]; BBRI Pa-No. 20, Table 7, read-out: MIC
  MIC: 1.6 µg/mL
[10]; BBRI Pa-No. 21, Table 7, read-out: MIC
  MIC: 1.6 µg/mL
[10]; BBRI Pa-No. 23, Table 7, read-out: MIC
  MIC: 1.6 µg/mL
[10]; BBRI Pa-No. 24, Table 7, read-out: MIC
  MIC: 50 µg/mL
[10]; BBRI Pa-No. 25, Table 7, read-out: MIC
  MIC: 0.8 µg/mL
[10]; BBRI Pa-No. 26, Ps32, Table 7, read-out: MIC
  MIC: 6.3 µg/mL
[10]; BBRI Pa-No. 28, CPH1C527/72, Table 7, read-out: MIC
  MIC: 1.6 µg/mL
[10]; BBRI Pa-No. 29, D122, Table 7, read-out: MIC
  MIC: 0.8 µg/mL
[10]; BBRI Pa-No. 30, Table 7, read-out: MIC
  MIC: 0.8 µg/mL
[10]; BBRI Pa-No. 31, Table 7, read-out: MIC
  MIC: < 0.2 µg/mL
[10]; BBRI Pa-No. 32, Table 7, read-out: MIC
  MIC: 0.8 µg/mL
[10]; BBRI Pa-No. 33, Table 7, read-out: MIC
  MIC: 0.8 µg/mL
[10]; BBRI Pa-No. 34, Table 7, read-out: MIC
  MIC: 0.4 µg/mL
[10]; BBRI Pa-No. 35, Table 7, read-out: MIC
  MIC: 1.6 µg/mL
[10]; BBRI Pa-No. 36, Table 7, read-out: MIC
  MIC: < 0.2 µg/mL
[10]; BBRI Pa-No. 37, Table 7, read-out: MIC
  MIC: 1.6 µg/mL
[10]; BBRI Pa-No. 38, Table 7, read-out: MIC
  MIC: 3.1 µg/mL
[10]; BBRI Pa-No. 39, Table 7, read-out: MIC
  MIC: 0.8 µg/mL
[10]; BBRI Pa-No. 41, Table 7, read-out: MIC
  MIC: 1.6 µg/mL
[10]; BBRI Pa-No. 42, Table 7, read-out: MIC
  MIC: 1.6 µg/mL
[10]; BBRI Pa-No. 43, Table 7, read-out: MIC
  MIC: 1.6 µg/mL
[10]; BBRI Pa-No. 44 (unnamed strain), Table 7, read-out: MIC
  MIC: 1.6 µg/mL
[10]; BBRI Pa-No. 51, Table 7, read-out: MIC
  MIC: 0.8 µg/mL
[10]; BBRI Pa-No. 52, Table 7, read-out: MIC
  MIC: 1.6 µg/mL
[10]; BBRI Pa-No. 53, Table 7, read-out: MIC
  MIC: 0.8 µg/mL
[10]; BBRI Pa-No. 54, Table 7, read-out: MIC
  MIC: 0.8 µg/mL
[10]; BBRI Pa-No. 55, Table 7, read-out: MIC
  MIC: 1.6 µg/mL
[10]; BBRI Pa-No. 56, Table 7, read-out: MIC
  MIC: 1.6 µg/mL
[10]; BBRI Pa-No. 57, Table 7, read-out: MIC
  MIC: 0.8 µg/mL
[10]; BBRI Pa-No. 58, Table 7, read-out: MIC
  MIC: 1.6 µg/mL
[10]; BBRI Pa-No. 59, Table 7, read-out: MIC
  MIC: 0.8 µg/mL
[10]; BBRI Pa-No. 60, Table 7, read-out: MIC
  MIC: 0.8 µg/mL
[10]; BBRI Pa-No. 61, Table 7, read-out: MIC
  MIC: 1.6 µg/mL
[10]; BBRI Pa-No. 62, Table 7, read-out: MIC
  MIC: 100 µg/mL
[10]; BBRI Pa-No. 64, Table 7, read-out: MIC
  MIC: 1.6 µg/mL
[10]; BBRI Pa-No. 65, Table 7, read-out: MIC
  MIC: 1.6 µg/mL
[10]; BBRI Pa-No. 66, Table 7, read-out: MIC
  MIC: 0.8 µg/mL
[10]; BBRI Pa-No. 67, Table 7, read-out: MIC
  MIC: 1.6 µg/mL
[10]; BBRI Pa-No. 68, Table 7, read-out: MIC
  MIC: 1.6 µg/mL
[10]; BBRI Pa-No. 69, Table 7, read-out: MIC
  MIC: 3.1 µg/mL
[10]; BBRI Pa-No. 70, K-Ps102(CR-102), Table 7, read-out: MIC
  MIC: 0.8 µg/mL
[10]; GN315, BBRI Pa-No. 27, GN315, Table 7, read-out: MIC
  MIC: 0.4 µg/mL
[10]; GN4925, BBRI Pa-No. 44, GN4925, Table 7, read-out: MIC
  MIC: 1.6 µg/mL
[11]
  MIC: 0.8 µg/mL
[12]
  MIC: 6.3 µg/mL
[13]
  MIC: 1.6 µg/mL

— patent publication US4138554A, “7-[D-α-(4-Hydroxy-1,5-naphthyridine-3-carboxamido)-α-phenyl (and p-hydroxyphenyl)acetamido]-3-carbamoyloxymethyl-3-cephem-4-carboxylic acids” (priority 1977, dated 1979)
